The source of these data is article PMC11648822, “Lactam Truncation Yields a Dihydroquinazolinone Scaffold with Potent Antimalarial Activity that Targets PfATP4” (Chemmedchem, 2024).

As a reminder, the CC50 is the concentration that lowers cell viability or growth by half. One may read the EC50 as the midpoint of the concentration-response curve.

Common to all, as to assay type: cell-based
The nature of series [1]: Human HepG2 cytotoxicity assay (Cell Titre Glo). Conditions: HepG2 cells, growth inhibition at 48 h, 4 replicate experiments, read-out: HepG2 CC50 (SD). The text has this: This assay uses Cell TitreGlo as a metabolic maker for human HepG2 cell growth and uses a protocol previously described.[32]
In series [2] the test system is P. falciparum Dd2 parental strain. Kind of series: PfATP4 drug resistant parasite viability assay (LDH), Dd2 parental. Conditions: Plasmodium falciparum, DD2, 72 h, read-out: Dd2^parental EC50 (SD). As to the method:
(§1) These assays were performed according to a previously described protocol.[16] Briefly, P. falciparum Dd2 strains treated with compound were incubated for 72 h at 37 °C. After incubating for 72 h, plates were frozen at −80 °C and then thawed at room temperature for at least 2 h. LDH activity, a surrogate for parasite growth was measured by the addition of the Malstst reagent mix, followed by incubation for 30 min and absorbance read using a ClarioStar Microplate reader at 650 nm. Values were normalized to DMSO control as a percentage and EC50 and dose response curves generated using GraphPad Prism.

Series [3] deals with P. falciparum Dd2 PfATP4^F156L strain. Nature of the series: 'compound 49' resistant parasite viability assay (LDH), Dd2 F156L. The following applies: Plasmodium falciparum, DD2, 72 h, read-out: Dd2^F156L EC50 (SD). As for the experimental part:
as §1

Series [4] relates to P. falciparum Dd2 PfATP4^triple (I398F, P990R, D1247Y) strain. Nature of the series: PfATP4 drug resistant parasite viability assay (LDH), Dd2 triple. The following applies: Plasmodium falciparum, DD2, 72 h, read-out: Dd2^triple EC50 (SD). As to the method: as §1
In a further series the test system is P. falciparum W2^mef. Nature of the series: Multidrug-resistant parasite viability assay (SYBR green), W2mef. Conditions: Plasmodium falciparum, W2, 72 h, read-out: multidrug resistant P. falciparum strains EC50 (SD) W2^mef. As for the experimental part: (§2) These assays were performed as previously described.[16] P. falciparum 3D7 parasites and resistant lines Dd2, W2mef, 7G8, and artemisinin‐resistant Cambodian isolate (Cam3.I (2539T)), and P. knowlesi YH1, were cultured in human O^+ erythrocytes (RBCs) (Australian Red Cross Blood Service), in RPMI‐HEPES culture medium (pH 7.4, 50 μg/mL hypoxanthine, 25 mM NaHCO3, 20 μg/mL gentamicin, 0.5 % Albumax II (GibcoBRL)) (Thermo Fisher Scientific) and maintained in an atmosphere of 1 % O2, 4 % CO2 and 95 % N2. Parasites were synchronised with 5 % (w/v) sorbitol (Sigma‐Aldrich) treatments for ring stages. Growth assays for measuring drug inhibition of in‐cycle, ring to schizont stage parasites have been described previously. Parasites were grown in 1 % haematocrit, at 1 % and 2 % parasitaemia for P. falciparum and P. knowlesi respectively. […] Parasitaemia was measured using a SYBR DNA staining assay on a fluorometer.[33] After the incubation period, supernatants were removed and well contents were resuspended in PBS.

The next series concerns P. falciparum 7G8. Nature of the series: Multidrug-resistant parasite viability assay (SYBR green), 7G8. Conditions: Plasmodium falciparum, 7G8, 72 h, read-out: multidrug resistant P. falciparum strains EC50 (SD) 7G8. As to the method: as §2

As to `CN1C(=O)c2ccc(-n3cccn3)cc2NC1(C)C(=O)Nc1cncc(Cl)c1` (stereo not drawn) [Compound 33, N‐(5‐Chloropyridin‐3‐yl)‐2,3‐dimethyl‐4‐oxo‐7‐(1H‐pyrazol‐1‐yl)‐1,2,3,4‐tetrahydroquinazoline‐2‐carboxamide], the CC50 at 48 h in series [1] is more than 40000 nM. The half-maximal effective concentration (EC50) is 73 nM in series [2]; 125 nM in series [3]; 584 nM in series [4]; 39 nM in the series with P. falciparum W2^mef; 101 nM in the series on P. falciparum 7G8.
With `COc1cc(F)c2c(c1)NC(C)(C(=O)Nc1cncc(Cl)c1)N(C)C2=O` (stereo not drawn) [Compound 36, N‐(5‐Chloropyridin‐3‐yl)‐5‐fluoro‐7‐methoxy‐2,3‐dimethyl‐4‐oxo‐1,2,3,4‐tetrahydroquinazoline‐2‐carboxamide], the CC50 at 48 h in series [1] was more than 40000 nM. Further, the concentration for a half-maximal effect (EC50) in series [2] was found to be 32 nM; in series [3], 47 nM; in series [4], 100 nM; in the series with P. falciparum W2^mef, 10 nM; in the series on P. falciparum 7G8, 31 nM.
For the compound `CN1C(=O)c2ccc(Cl)cc2NC1(C)C(=O)Nc1cncc(Cl)c1` (stereo not drawn) [Compound 14, 7‐Chloro‐N‐(5‐chloro‐3‐pyridyl)‐2,3‐dimethyl‐4‐oxo‐1H‐quinazoline‐2‐carboxamide], the CC50 at 48 h in series [1] was more than 40000 nM. Moreover, the EC50 in series [2] was 50 nM; in series [3], 89 nM; in series [4] it was 160 nM; with P. falciparum W2^mef, 17 nM; with P. falciparum 7G8 it was 43 nM.
